Data published in paper PMC12529750 (Emerging Microbes & Infections, 2025).

What was measured:
Type in all cases: cell-based
[1] = tested on: SARS-CoV-2 ENS-EV1 (M49L and S144A in Mpro)
[2] = tested on: SARS-CoV-2 ENS-EV2 (M49L, S144A and T169I in Mpro)
SARS-CoV-2 M49L variant = tested on: SARS-CoV-2 M49L variant
SARS-CoV-2 S144A variant = tested on: SARS-CoV-2 S144A variant
[3] = tested on: SARS-CoV-2 M49L+S144A variant
[4] = tested on: SARS-CoV-2 M49L+E166A variant
SARS-CoV-2 T169I variant = tested on: SARS-CoV-2 T169I variant
[5] = tested on: SARS-CoV-2 M49L+S144A+T169I variant
[6] = tested on: SARS-CoV-2 L50F+E166V variant
[7] = tested on: SARS-CoV-2 NIR-EV L50F+E166V
SARS-CoV-2 E166G variant = tested on: SARS-CoV-2 E166G variant
SARS-CoV-2 E166H variant = tested on: SARS-CoV-2 E166H variant
SARS-CoV-2 E166Q variant = tested on: SARS-CoV-2 E166Q variant
SARS-CoV-2 E166S variant = tested on: SARS-CoV-2 E166S variant
[8] = tested on: SARS-CoV-2 replicon with M49L + S144A + T169I
[9] = tested on: SARS-CoV-2 replicon with M49L + E166A
SARS-CoV-2 E166L variant = tested on: SARS-CoV-2 E166L variant
[10] = tested on: SARS-CoV-2 replicon with E166A

Row | SMILES | Fold resistance, highest in VeroE6 or A549-hACE2 cells [1] | Fold resistance, highest in VeroE6 or A549-hACE2 cells [2] | Fold resistance, highest in VeroE6 or A549-hACE2 cells (SARS-CoV-2 M49L variant) | Fold resistance, highest in VeroE6 or A549-hACE2 cells (SARS-CoV-2 S144A variant) | Fold resistance, highest in VeroE6 or A549-hACE2 cells [3] | Fold resistance, highest in VeroE6 or A549-hACE2 cells [4] | Fold resistance, highest in VeroE6 or A549-hACE2 cells (SARS-CoV-2 T169I variant) | Fold resistance, highest in VeroE6 or A549-hACE2 cells [5] | Fold resistance, highest in VeroE6 or A549-hACE2 cells [6] | Fold resistance, highest in VeroE6 or A549-hACE2 cells [7] | Fold resistance, highest in VeroE6 or A549-hACE2 cells (SARS-CoV-2 E166G variant) [fold] | Fold resistance, highest in VeroE6 or A549-hACE2 cells (SARS-CoV-2 E166H variant) [fold] | Fold resistance, highest in VeroE6 or A549-hACE2 cells (SARS-CoV-2 E166Q variant) [fold] | Fold resistance, highest in VeroE6 or A549-hACE2 cells (SARS-CoV-2 E166S variant) [fold] | Resistance of replicon (% RLU in treated cultures) [8] | Resistance of replicon (% RLU in treated cultures) [9] | Fold resistance, highest in VeroE6 or A549-hACE2 cells (SARS-CoV-2 E166L variant) [fold] | Resistance of replicon (% RLU in treated cultures) [10]
1 | Cn1cnc(Cn2c(=O)[nH]/c(=N\c3cc4cn(C)nc4cc3Cl)n(Cc3cc(F)c(F)cc3F)c2=O)n1 [ENS, Ensitrelvir] | up to 110 fold | up to 280 fold | up to 71 fold | up to 21 fold | up to 290 fold | up to 180 fold | up to 4.8 fold | up to 660 fold | up to 14 fold | up to 36 fold | < 5 | > 5 | < 5 | > 5 | highest resistance | lower resistance | – | –
2 | CC(C)(C)[C@H](NC(=O)C(F)(F)F)C(=O)N1C[C@H]2[C@@H]([C@H]1C(=O)N[C@H](C#N)C[C@@H]1CCNC1=O)C2(C)C [NIR, Nirmatrelvir] | < 10 fold | < 10 fold | – | – | – | – | – | – | – | – | < 5 | – | < 5 | > 5 | – | relatively high resistance | > 5 | relatively high resistance
